# Biological target: T1, METTL3/14 (Homo sapiens, UniProt Q86U44)
# T1 construct: purchased active motif 31570
# Experiment: METTL3/14 methyltransferase activity assay (HTRF)
# Type: biochemical
# Details: 10 concentrations, 3-fold dilution from 10 µM
# Method: The final initial concentration of the compound was 10 µM, with 3-fold serial dilution to give a total of 10 concentrations. 100 nL of the compound was transferred to a 384-well plate and centrifuged at 1000 RPM. 2.5 µL of METTL3/14 (active motif, Cat No. 31570) was added to the test wells and incubated at 25°C for 10 min. 2.5 µL of METTL3-Biotin & SAM (GenScript) was added to the test wells andincubated at 25°C for 60 min. 2.5 µL of YTHDF1 (active motif, Cat No. 31608) was added to the test wells and centrifuged at 1000 RPM. 2.5 µL of Streptavidin-Tb (Perkin Elmer Cat No. 61SATLB) & Flag-mede (Perkin Elmer Cat No. 61FG2DLA) was added to the test wells and centrifuged at 1000 RPM. Incubated at 25°C for 60 min. HTRF was measured using a Plate reader. The results of each compound are shown in Table 1, where A+indicates <10nM, A indicates 10-100nM, B indicates 100-1000nM, and C indicates >1000nM.
# T1 sequence (Q86U44 whole entry): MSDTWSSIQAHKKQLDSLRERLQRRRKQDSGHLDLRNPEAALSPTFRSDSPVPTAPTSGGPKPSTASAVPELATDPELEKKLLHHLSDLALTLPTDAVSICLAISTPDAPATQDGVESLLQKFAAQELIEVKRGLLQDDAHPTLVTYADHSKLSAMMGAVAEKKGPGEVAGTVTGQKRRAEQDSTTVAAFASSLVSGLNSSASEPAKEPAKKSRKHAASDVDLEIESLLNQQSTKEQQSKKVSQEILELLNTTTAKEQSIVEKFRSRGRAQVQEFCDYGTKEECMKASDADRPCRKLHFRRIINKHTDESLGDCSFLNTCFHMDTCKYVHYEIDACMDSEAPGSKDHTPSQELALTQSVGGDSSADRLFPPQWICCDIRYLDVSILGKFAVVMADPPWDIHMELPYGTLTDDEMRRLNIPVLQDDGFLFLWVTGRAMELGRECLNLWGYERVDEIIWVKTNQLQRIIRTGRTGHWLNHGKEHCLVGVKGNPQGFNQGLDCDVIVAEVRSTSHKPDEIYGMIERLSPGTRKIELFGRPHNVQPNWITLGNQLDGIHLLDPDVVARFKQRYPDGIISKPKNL
# T1 sequence (Q9HCE5 whole entry partner): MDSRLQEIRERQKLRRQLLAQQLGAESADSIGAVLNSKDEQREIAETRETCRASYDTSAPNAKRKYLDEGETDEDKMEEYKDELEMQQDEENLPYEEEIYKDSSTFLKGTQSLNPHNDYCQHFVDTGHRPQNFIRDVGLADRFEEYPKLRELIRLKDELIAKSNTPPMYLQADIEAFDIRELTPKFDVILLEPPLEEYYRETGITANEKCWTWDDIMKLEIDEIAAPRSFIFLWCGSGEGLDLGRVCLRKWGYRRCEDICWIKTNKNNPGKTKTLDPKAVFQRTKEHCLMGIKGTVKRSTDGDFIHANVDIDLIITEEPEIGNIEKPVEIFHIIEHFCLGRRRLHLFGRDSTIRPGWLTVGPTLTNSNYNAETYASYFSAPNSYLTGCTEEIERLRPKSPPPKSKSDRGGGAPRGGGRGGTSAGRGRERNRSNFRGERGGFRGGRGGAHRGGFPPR
row,SMILES,IC50 [nM]
1,"O=C(NCc1ccc2cc(CNCC3CCC3)[nH]c2c1)c1cn2nccc(N3CCOCC3)c2n1 [Example 8, N-((2-(((Cyclobutylmethyl)amino)methyl)-1H-indol-6-yl)methyl)-8-morpholinoimidazo[1,2-b]pyridazine-2-carboxamide]",100 to 1000
2,"O=C(NCc1ccc2cc(CNCC3CCC3)[nH]c2c1)c1cn2nccc2c(N2CCCC2)n1 [Example 15, N-((2-(((Cyclobutylmethyl)amino)methyl)-1H-indol-6-yl)methyl)-4-(pyrrolidin-1-yl)pyrazolo[1,5-a]pyrazine-6-carboxamide]",100 to 1000
3,"O=C(NCc1cc2ccc(CNCC3CCC3)cc2[nH]1)c1cc(=O)n2ccccc2n1 [Example 21, N-((6-(((Cyclobutylmethyl)amino)methyl)-1H-indol-2-yl)methyl)-4-oxo-4H-pyrido[1,2-a]pyrimidine-2-carboxamide]",100 to 1000
4,"O=C(NCc1ccc2cc(CNCC3CC(=C(F)F)C3)[nH]c2c1)c1cc(=O)n2cc3c(cc2n1)OCCO3 (stereo not shown) [Example 28, N-((2-((((3-(Difluoromethylene)cyclobutyl)methyl)amino)methyl)-1H-indol-6-yl)methyl)-9-oxo-2,3-dihydro-9H-[1,4]dioxino[2',3':4,5]pyrido[1,2-a]pyrimidine-7-carboxamide]",100 to 1000
5,"O=C(NCc1ccc2cc(CNCC3CCC3)[nH]c2c1)c1cc(=O)n2cc3c(cc2n1)OC(F)(F)O3 [Example 30, N-((2-(((Cyclobutylmethyl)amino)methyl)-1H-indol-6-yl)methyl)-2,2-difluoro-8-oxo-8H-[1,3]dioxolo[4',5':4,5]pyrido[1,2-a]pyrimidine-6-carboxamide]",10 to 100
6,"O=C(NCc1cc2[nH]c(CNCC3CCC3)cc2s1)c1cc(=O)n2cc3c(cc2n1)OCCO3 [Example 31, N-((5-(((cyclobutylmethyl)amino)methyl)-4H-thieno[3,2-b]pyrrol-2-yl)methyl)-9-oxo-2,3-dihydro-9H-[1,4]dioxino[2',3':4,5]pyrido[1,2-a]pyrimidine-7-carboxamide]",10 to 100
7,"O=C(NCc1ccc2cc(CN3CCc4ccccc4C3)[nH]c2c1)c1cc(=O)n2cc3c(cc2n1)OCO3 [Example 34, N-((2-((3,4-dihydroisoquinolin-2(1H)-yl)methyl)-1H-indol-6-yl)methyl)-8-oxo-8H-[1,3]dioxolo[4',5':4,5]pyrido[1,2-a]pyrimidine-6-carboxamide]",10 to 100
8,"O=C(NCc1ccc2cc(CNC3CCC(F)(F)CC3)[nH]c2c1)c1cc(=O)n2cc3c(cc2n1)OCO3 [Example 37, N-((2-(((4,4-Difluorocyclohexyl)amino)methyl)-1H-indol-6-yl)methyl)-8-oxo-8H-[1,3]dioxolo[4',5':4,5]pyrido[1,2-a]pyrimidine-6-carboxamide]",10 to 100
9,"O=C(NCc1ccc2cc(CNC3CC(F)(F)C3)[nH]c2c1)c1cc(=O)n2cc3c(cc2n1)OCO3 [Example 39, N-((2-(((3,3-Difluorocyclobutyl)amino)methyl)-1H-indol-6-yl)methyl)-8-oxo-8H-[1,3]dioxolo[4',5':4,5]pyrido[1,2-a]pyrimidine-6-carboxamide]",10 to 100
10,"O=C(NCc1ccc2cc(CNCC3(C(F)(F)F)CC3)[nH]c2c1)c1cc(=O)n2cc3c(cc2n1)OCO3 [Example 40, 8-Oxo-N-((2-((((1-(trifluoromethyl)cyclopropyl)methyl)amino)methyl)-1H-indol-6-yl)methyl)-8H-[1,3]dioxolo[4',5':4,5]pyrido[1,2-a]pyrimidine-6-carboxamide]",10 to 100
11,"O=C(NC1(c2ccc3cc(CNCC4CCC4)[nH]c3c2)CC1)c1cc(=O)n2cc3c(cc2n1)OCO3 [Example 42, N-(1-(2-(((Cyclobutylmethyl)amino)methyl)-1H-indol-6-yl)cyclopropyl)-8-oxo-8H-[1,3]dioxolo[4',5':4,5]pyrido[1,2-a]pyrimidine-6-carboxamide]",100 to 1000
12,"O=C(NC1(c2ccc3cc(CNCC4CCC4)[nH]c3c2)CC1)c1cc(=O)n2cc3c(cc2n1)OCCO3 [Example 43, N-(1-(2-(((Cyclobutylmethyl)amino)methyl)-1H-indol-6-yl)cyclopropyl)-9-oxo-2,3-dihydro-9H-[1,4]dioxino[2',3':4,5]pyrido[1,2-a]pyrimidine-7-carboxamide]",10 to 100
13,"O=C(NCc1ccc2cc(CNCC3(C(F)(F)F)CCC3)[nH]c2c1)c1cc(=O)n2cc3c(cc2n1)OCO3 [Example 56, 8-Oxo-N-((2-((((1-(trifluoromethyl)cyclobutyl)methyl)amino)methyl)-1H-indol-6-yl)methyl)-8H-[1,3]dioxolo[4',5':4,5]pyrido[1,2-a]pyrimidine-6-carboxamide]",10 to 100
14,"O=C(NCc1ccc2cc(CNCC3CC4(CCC4)C3)[nH]c2c1)c1cc(=O)n2cc3c(cc2n1)OCO3 [Example 58, 8-Oxo-N-((2-(((spiro[3.3]heptan-2-ylmethyl)amino)methyl)-1H-indol-6-yl)methyl)-8H-[1,3]dioxolo[4',5':4,5]pyrido[1,2-a]pyrimidine-6-carboxamide]",10 to 100
15,"CN1CCOc2cnn3cc(C(=O)NCc4ccc5cc(CNCC6CCC6)[nH]c5c4)nc1c23 [Example 59, N-((2-(((Cyclobutylmethyl)amino)methyl)-1H-indol-6-yl)methyl)-6-methyl-7,8-dihydro-6H-9-oxa-2,2a,5,6-tetraazabenzo[cd]azulene-4-carboxamide]",100 to 1000
16,"O=C(NCc1ccc2cc(CNCC3CCC3)[nH]c2c1)c1cn2ncc3c2c(n1)OCCO3 [Example 61, N-((2-(((Cyclobutylmethyl)amino)methyl)-1H-indol-6-yl)methyl)-7,8-dihydro-6,9-dioxa-2,2a,5-triazabenzo[cd]azulene-4-carboxamide]",100 to 1000

# Other lines, results leading:
row,IC50 [nM],SMILES
1,10 to 100,"O=C(NCc1ccc2cc(CNCC3CCC3)[nH]c2c1)c1cn2ncccc2n1 [Example 1, N-((2-(((Cyclobutylmethyl)amino)methyl)-1H-indol-6-yl)methyl)imidazo[1,2-b]pyridazine-2-carboxamide]"
2,10 to 100,"O=C(NCc1ccc2cc(CNCC3CCC3)[nH]c2c1)c1cc2ncccn2n1 [Example 2, N-((2-(((Cyclobutylmethyl)amino)methyl)-1H-indol-6-yl)methyl)pyrazolo[1,5-a]pyrimidine-2-carboxamide]"
3,10 to 100,"O=C(NCc1ccc2cc(CNCC3CCC3)[nH]c2c1)c1cnn2cccnc12 [Example 3, N-((2-(((Cyclobutylmethyl)amino)methyl)-1H-indol-6-yl)methyl)pyrazolo[1,5-a]pyrimidine-3-carboxamide]"
4,10 to 100,"O=C(NCc1ccc2cc(CNCC3CCC3)[nH]c2c1)c1ccn(Cc2ccccc2)c(=O)c1 [Example 11, 1-Benzyl-N-((2-(((cyclobutylmethyl)amino)methyl)-1H-indol-6-yl)methyl)-2-oxo-1,2-dihydropyridine-4-carboxamide]"
5,10 to 100,"CNc1nc(C(=O)NCc2ccc3cc(CNCC4CCC4)[nH]c3c2)cn2nccc12 [Example 13, N-((2-(((Cyclobutylmethyl)amino)methyl)-1H-indol-6-yl)methyl)-4-(methylamino)pyrazolo[1,5-a]pyrazine-6-carboxamide]"
6,10 to 100,"COc1ccc(CNc2nc(C(=O)NCc3ccc4cc(CNCC5CCC5)[nH]c4c3)cn3nccc23)cc1 [Example 14, N-((2-(((Cyclobutylmethyl)amino)methyl)-1H-indol-6-yl)methyl)-4-((4-methoxybenzyl)amino)pyrazolo[1,5-a]pyrazine-6-carboxamide]"
7,10 to 100,O=C(NCc1ccc2cc(CN3CCC(F)(F)CC3)[nH]c2c1)c1cc(=O)n2cc3c(cc2n1)OCCO3 [Example 27]
8,10 to 100,"O=C(NCc1ccc2cc(CN3CCC(F)(F)CC3)[nH]c2c1)c1cc(=O)n2cc3c(cc2n1)OCO3 [Example 29, N-((2-((4,4-Difluoropiperidin-1-yl)methyl)-1H-indol-6-yl)methyl)-8-oxo-8H-[1,3]dioxolo[4',5':4,5]pyrido[1,2-a]pyrimidine-6-carboxamide]"
9,< 10,"O=C(NCc1ccc2cc(CNCC34CCCC3C4)[nH]c2c1)c1cc(=O)n2cc3c(cc2n1)OCO3 (stereo not shown) [Example 60, N-((2-(((Bicyclo[3.1.0]hexan-1-ylmethyl)amino)methyl)-1H-indol-6-yl)methyl)-8-oxo-8H-[1,3]dioxolo[4',5':4,5]pyrido[1,2-a]pyrimidine-6-carboxamide]"
10,< 10,"[2H]C([2H])(NCC1CCC1)c1cc2ccc(CNC(=O)c3cc(=O)n4cc5c(cc4n3)OCO5)cc2[nH]1 [Example 62, N-((2-(((cyclobutylmethyl)amino)methyl-d2)-1H-indol-6-yl)methyl)-8-oxo-8H-[1,3]dioxolo[4',5':4,5]pyrido[1,2-a]pyrimidine-6-carboxamide]"
11,< 10,"O=C(NCc1ccc2cc(CNCC34CCCC3C4)[nH]c2c1)c1cc(=O)n2cc3c(cc2n1)OCCO3 (stereo not shown) [Example 63, N-((2-(((Bicyclo[3.1.0]hexan-1-ylmethyl)amino)methyl)-1H-indol-6-yl)methyl)-9-oxo-2,3-dihydro-9H-[1,4]dioxino[2',3':4,5]pyrido[1,2-a]pyrimidine-7-carboxamide]"
12,< 10,"O=C(NCc1cc2[nH]c(CNCC34CC(F)(C3)C4)cc2cc1F)c1cc(=O)n2cc3c(cc2n1)OCO3 [Example 74, N-((5-fluoro-2-((((3-fluorobicyclo[1.1.1]pentan-1-yl)methyl)amino)methyl)-1H-indol-6-yl)methyl)-8-oxo-8H-[1,3]dioxolo[4',5':4,5]pyrido[1,2-a]pyrimidine-6-carboxamide]"

# From EP4800016A1, “METTL3 INHIBITOR” (Hangzhou Bangshun Pharmaceutical Co., Ltd., priority 2023, dated 2025)
